Ends that are not written are not given here.
What was measured:
CRF receptors = details: rat, in vivo; cited from earlier work
[1] = cited from earlier work
human CRF-BP = details: cited from earlier work
[2] = tested on: CRF receptors (rat anterior pituitary cells); assay: ACTH secretion from rat anterior pituitary cells (CRF agonist/antagonist activity); format: cell-based; details: for CRF agonist activity relative to standard oCRF: oCRF arbitrarily 1.0
Method: Candidate ligand inhibitors may be screened for their ability to displace CRF from the CRF/CRF-BP complex by biological assay or by in vitro assay. One suitable biological assay is the measurement of ACTH release from cultured pituitary cells. This assay is performed in the following manner. Anterior pituitary glands from rats are washed six times with sterile HEPES buffer and transferred to a solution containing collagenase. After subsequent transfer to a 25 ml Bellco dispersion flask, the pituitaries are stirred for 30 minutes at 37° C., triturated, incubated for a further 30 minutes, and again triturated. The partially dispersed cells are then collected by centrifugation. The cell pellet is resuspended in 10 ml of neuraminidase and again collected by centrifugation. The pellet is reconstituted in 25 ml of BBM-P (BBM (Irvine Scientific) plus 100 μg/L, cortisol, 1 μg/L insulin, 0.1 μg/L EGF2, 0.4 μg/L T3, 0.7 μg/L PTH, 10 μg/L glucagon, and 2% fetal bovine serum), centrifuged again, and the resultant pellet is finally reconstituted in BBM-P. The cells are then plated at a density of 50,000-100,000/well in a 48 well plate and incubated for 2 days. On the day of assay the cells are washed once with BBM-T in preparation for stimulation with the peptide candidates or CRF. Cells are stimulated with a maximally stimulating dose of h/rCRF (1 nM) and ACTH release is measured by RIA or immunoradiometric assay. When a blocking concentration of CRF-BP is added, the amount of ACTH that is released is reduced and expressed as a fraction of the maximal release. The ligand inhibitor is added at various doses. The potency of the peptide in displacing CRF from CRF-BP is measured by the amount of ACTH release expressed as a fraction of the maximal release caused by CRF given alone.
An additional assay using rat anterior pituitary cells to measure ACTH secretion can be carried out to determine whether a ligand inhibitor functions as a CRF agonist of hCRF receptors. […] Antagonistic action may be determined by performing the assay in the presence of a challenge dose of CRF. […]

CRF/CRF-BP complexes = assay: ELISA of CRF/CRF-BP complex in NP-40 solubilized cerebrocortical brain tissue (FIG. 3); format: binding, human; details: post-mortem controls and Alzheimer's disease patients
Method: FIG. 3 is a graph displaying the results of ELISAs testing the ability of a representative ligand inhibitor, Compound No. 35, to displace endogenous CRF from CRF-BP in brain tissue from Alzheimer's disease patients and normal controls.
Another ligand inhibitor, Compound No. 35, was tested for its ability to inhibit CRF/CRF-BP complexes in NP-40 solubilized human cerebrocortical brain tissue obtained postmortem from controls and Alzheimer disease patients. Briefly, 0.1-0.5 g of brain tissue was homogenized in phosphate-buffered saline containing 0.2% NP-40. The homogenate was clarified by centrifugation at 3000×g for 10 minutes. Supernatants were assayed by ELISA for the formation of CRF/CRF-BP complex in the presence or absence of Compound No. 35.

human recombinant CRF-BP = target: T1, human recombinant CRF-BP (Homo sapiens, UniProt P24387); assay: LIRMA: displacement of 125I-h/rCRF from CRF-BP, Ki; format: binding; details: inhibitory binding affinity constant (Ki)
T1 construct: made in house
T1 sequence (P24387 25-322): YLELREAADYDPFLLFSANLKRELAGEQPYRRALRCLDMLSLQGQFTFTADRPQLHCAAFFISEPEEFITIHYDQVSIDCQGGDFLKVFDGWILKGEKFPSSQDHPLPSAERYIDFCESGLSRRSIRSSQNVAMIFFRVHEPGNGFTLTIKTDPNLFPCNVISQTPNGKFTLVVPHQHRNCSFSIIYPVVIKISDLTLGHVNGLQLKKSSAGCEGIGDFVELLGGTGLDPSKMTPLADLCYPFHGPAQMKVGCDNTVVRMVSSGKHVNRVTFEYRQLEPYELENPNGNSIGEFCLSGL
Method: In LIRMA CRF-BP isolated from brain tissue, serum, or cells expressing a recombinant form, is added to wells of a 96-well plate, to small polypropylene microfuge tubes, or to glass borosilicate tubes in a binding buffer (0.02% NP-40 in 50 mM phosphate-buffered saline). ^125 I-h/rCRF (New England Nuclear) and the candidate ligand inhibitor at 10 μM are added and the reaction is incubated for 1 hour at room temperature. An appropriately diluted anti-CRF-BP antibody, such as a rabbit anti-hCRF-BP (Potter et al., Proc. Natl. Acad. Sci. USA 89:4192-4196, 1992) is added to each tube, and after further incubation, bound complexes are precipitated by the further addition of a goat anti-rabbit antibody. The precipitate containing ^125 I-CRF is collected by centrifugation and the amount of radioactivity in the pellet is determined by a gamma counter. If the candidate ligand inhibitor displaces CRF from CRF-BP, the pellets will contain less radioactivity in comparison to controls in which no candidate peptide is added. Maximum inhibition (i.e., 100%) of the binding of ^125 I-h/rCRF to the CRF-BP is defined by the amount of radioactivity left in the pellets after incubation with 10 μM of the CRF-BP peptide ligand h/rCRF (6-33). Thus, the binding potency of the candidate ligand inhibitor will be measured relative to the potency of the standard h/rCRF (6-33).
Thus, a ligand having a Ki of less than that of hCRF will bind more strongly to hCRF-BP than will hCRF itself, and a ligand having a higher value will have a relatively lower binding affinity.
The assay is performed in 600 μl polypropylene microfuge tubes or a 96-well plate. First, 50 μl of a 250 ng/ml of purified recombinant CRF-BP is added to 150 μl of PBS binding buffer (50 mM sodium phosphate, 0.15M NaCl, and 0.02% NP-40). Next, ^125 I-h/r CRF at a final concentration of 200 pM and 50 μl of a 10-100 μM concentration of the ligand inhibitor are added and incubated for 1 hour at room temperature. To the reaction, 50 μl of anti-CRF-BP antibody, 5144, diluted 1:1000 with assay buffer is added to each tube and allowed to bind for a further 1 hour at room temperature. The total volume in all tubes is adjusted to 300 μl with assay buffer. Bound complexes are precipitated by the addition of 200 μl of preprecipitated goat anti-rabbit (GAR) second antibody at 1:20 in 1% normal rabbit serum, 4% PEG, 50 mM sodium phosphate, 0.1% sodium azide, followed by incubation for 1 hour at room temperature. The antibody-bound ^125 I-CRF precipitate is then collected by centrifugation (3000×g) at 4° C. for 20 minutes in a Beckman GS-15R centrifuge. Using a Beckman Biomer 1000 robotic workstation, the tubes are aspirated and washed once with 600 μl of PBS plus 0.02% NP-40. Tubes containing the pellets are then transferred to 12×74 mm counting tubes and counted in a gamma counter.
Inhibitory binding affinity constant (Ki) values are determined using the method of Munson et al., Anal. Biochem. 107:220, 1980.

[3] = Automated passive avoidance learning; format: in vivo, rat; details: oral, 5 minutes after training period; FIGS. 5A, 5B
Method: FIGS. 5A and 5B are graphs depicting the effect of administration of representative ligand inhibitors of this invention, Compound Nos. 97-1 and 153, respectively. The ligand inhibitors were administered 5 minutes post-training period in the passive avoidance test.
The apparatus for both rats and mice is the same as used in active avoidance testing (see Example 14).
For the training trial, the animal is placed individually in one compartment of the learning apparatus, which is separated from a second compartment by a guillotine door. Following a three minute habituation period, the door is opened and the latency to enter the second compartment is recorded. When the animal enters with all four paws, the door is closed, and a 0.5 second AC footshock (Coulburn precision shocker) is delivered. After five seconds, the subject is removed and placed in its home cage. At the time of testing (usually 1-7 days later), the animal is returned to the compartment in which it was initially placed for the learning trial, the door is opened and the latency to enter the second compartment is recorded, but the animal is not shocked. […]
For most strains of rats with weights between 150 and 350 grams, an effective footshock intensity ranges from 0.2-1.0 mA. […] The latency time of rats to enter the dark compartment is measured. […]

CN1[C@@H]2CC[C@H]1C[C@@H](OC(=O)C(CO)c1ccccc1)C2 (stereo partly shown) [atropine]
CRF receptors after treatment (CRF receptors): increase in CRF receptors

urocortin: the human neuropeptide urocortin (DNPSLSIDLTFHLLRTLLELARTQSQRERAEQNRIIFDSV; ends and bridges not checked; UniProt P55089 83-122, looked up)
feeding behavior ([1]; animals): significantly suppress feeding behavior in animals | blood pressure ([1]; in vivo): lowering blood pressure | affinity for CRF-BP (human CRF-BP): high affinity

hCRF (6-33): CRF-BP peptide ligand h/rCRF (6-33) (ISLDLTFHLLREVLEMARAEQLAQQAHS; Corticoliberin; UniProt P06850 159-186, looked up, fragment)
CRF antagonist activity [2]: does not exhibit substantial CRF antagonist activity | CRF agonist activity relative to standard oCRF [2]: less than 0.1%

hCRF (9-33): The peptide hCRF (9-33) (DLTFHLLREVLEMARAEQLAQQAHS; Corticoliberin; UniProt P06850 162-186, looked up, fragment)
CRF agonist activity relative to standard oCRF [2]: less than 0.01%

O=c1oc2ccc(Cl)cc2c(O)c1C=Nc1nc2ccccc2s1 [Compound 35]
inhibition of formation of CRF/CRF-BP complexes in brain tissue (CRF/CRF-BP complexes): inhibits formation of CRF/CRF-BP complexes in brains of controls and Alzheimer's disease patients

O=c1c(C=Nc2nc3ccccc3[nH]2)c(O)n(CCCc2ccccc2)c(=S)n1CCCc1ccccc1 [Compound 97-1]
Ki (human recombinant CRF-BP): < 50 nM | latency time to entering the dark compartment [3]: increase in medium latency time

From US5959109A, “Compounds and methods for increasing endogenous levels of corticotropin-releasing factor” (Neurocrine Biosciences, Inc., priority 1996, dated 1999)
